One data set deals with HMG-CoA reductase (Homo sapiens, UniProt P04035). Put plainly: Enzyme selectivity assay. The format is biochemical. On the procedure:
(§1) The activity of nepicastat at twelve selected enzymes and receptors was determined using established assays. Binding data were analyzed by iterative curve-fitting to a four parameter logistic equation. Ki values were calculated from IC50 values using the Cheng-Prusoff equation. Enzyme inhibitory activity was expressed as IC50 (concentration required to produce 50% inhibition of enzyme activity).
(§2) The activity of nepicastat at eleven different enzymes was determined using established assays. The affinity of nepicastat for thirteen selected receptors was determined by radioligand binding assays using standard filtration techniques and membrane preparations. Binding data were analyzed by iterative curve fitting to a four parameter logistic equation. Ki values were calculated using the Cheng-Prusoff equation.

The target in a further data set is acetyl CoA synthetase. Put plainly: Enzyme selectivity assay. The format is biochemical. The protocol: as §1, §2
Data set [1] concerns the target acyl CoA-cholesterol acyl transferase. Put plainly: Enzyme selectivity assay. It is filed as biochemical. The protocol: as §1, §2
Another data set addresses cyclooxygenase-I (Homo sapiens, UniProt P23219). Put plainly: Enzyme selectivity assay. It is filed as biochemical. The protocol: as §1, §2
A further data set concerns the target neutral endopeptidase (Homo sapiens, UniProt P08473). Put plainly: Enzyme selectivity assay. The format is biochemical. On the procedure: as §1, §2
In a further data set the target is nitric oxide synthase. Put plainly: Enzyme selectivity assay. It is filed as biochemical. The protocol:
as §1, §2

A further data set concerns the target phosphodiesterase III. Put plainly: Enzyme selectivity assay. It is filed as biochemical. On the procedure: as §1, §2
The next data set concerns the target phospholipase A2. Put plainly: Enzyme selectivity assay. It is filed as biochemical. On the procedure:
as §1, §2

Another data set has as its target protein kinase C. Put plainly: Enzyme selectivity assay. The format is biochemical. The protocol:
as §1, §2

The target of another data set is tyrosine hydroxylase (Homo sapiens, UniProt P07101). Put plainly: Enzyme selectivity assay. It is filed as biochemical. The protocol:
as §1, §2

The subject of another data set is pithed SHRs. Put plainly: Pressor response to pre-ganglionic nerve stimulation in pithed SHRs. The format is in vivo, spontaneously hypertensive rats. The protocol:
The in vivo hemodynamic activity of nepicastat was further assessed in conscious, restrained SHRs, a model having high sympathetic drive to cardiovascular tissues. Hemodynamic study in SHRs. Male SHRs (15-16 week old) were used in the study. The animals were lightly anesthetized with ether and the left femoral artery and vein were catheterized for measurement of blood pressure and drug administration, respectively. The animals were placed in restrainers and allowed to recover for 30-40 min. After obtaining baseline measurements, the animals were treated, orally, with either vehicle or the appropriate dose of nepicastat and hemodynamic parameters were continuously recorded for 4 h. The animals were then anesthetized with pentobarbital, placed on a heating pad (37° C.) and ventilated with a Harvard rodent ventilator. After administration of atropine (1 mg/kg, iv) and tubocurarine (1 mg/kg, iv), the animals were pithed through the orbit of the eye with a stainless steel rod. The […] rod was stimulated electrically with 1 ms pulses of 80V at different frequencies (0.15, 0.45, 1.5, 5, 15 Hz) to obtain frequency-pressor response curves. […] The response was slow in onset, reaching its plateau in 3-4 h. […] Following this study, the rats were pithed and the effects of nepicastat on the pressor response to pre-ganglionic nerve stimulation (PNS) of the spinal cord were evaluated 5 h after dosing.

Data set [2] has as its system aortic contractile response to phenylephrine. Put plainly: Aortic contractile response in vitro to phenylephrine after 21 days treatment. The format is in vivo, spontaneously hypertensive rats. As to conditions: 10 mg/kg p.o. daily for 21 days. From the text: The aortic contractile response in vitro to phenylephrine is impaired in spontaneously hypertensive rats (SHRs) relative to normotensive Wistar-Kyoto rats.

For data set [3], the system named is left ventricular [3H] CGP-12177 binding sites. Put plainly: [3H] CGP-12177 saturation binding in left ventricle membranes of treated dogs. Also on record: species or system beagle dogs. As to conditions: 10 mg/kg/day for 4.5 days. On the procedure: Ventricles were homogenized in 50 mM Tris-HCl, 5 mM Na2EDTA buffer (pH 7.4 at 4° C.) using a Polytron P-10 tissue disrupter (setting 10, 2×15 second bursts). Homogenates were centrifuged at 500×g for 10 minutes and the supernatants stored on ice. The pellets were washed by resuspension and centrifugation at 500×g and the supernatants combined. The combined supernatants were centrifuged at 48,000×g for 20 minutes. The pellets were washed by resuspension and centrifugation once in homogenizing buffer and twice in 50 mM Tris-HCl, 0.5 mM EDTA buffer (pH 7.4 at 4° C.). Membranes were stored at −70° C. until required. Saturation experiments were conducted using [^3H] CGP-12177 in buffer containing 50 mM Tris-HCl, 0.5 mM EDTA (pH 7.4 at 32° C.). Non-specific binding was defined by 10 μM isoproterenol. Total bound, non-specific bound and total count tubes were set up for eight concentrations of [^3H] […] Aquasol scintillation fluid was added to each vial and radioactivity determined by liquid scintillation counting. Saturation binding isotherms were analyzed after first converting total ligand concentrations to free ligand concentrations (total−bound=free). […] Tissue catecholamine levels were analyzed by comparing nepicastat-treated groups with the placebo (control) treated groups. […] Additionally, a linear orthogonal contrast was calculated for all three doses within the context of a one-way ANOVA. […]

The nature of data set [4]: Safety and tolerability in squirrel monkeys. It is filed as in vivo. On the procedure: Six squirrel monkeys, three non-lesioned and three lesioned (received 2 mg/kg MPTP 3 months prior), were used to study safety and tolerability of nepicastat. Animals received nepicastat at a concentration of 0.5, 2.0, or 5.0 mg/kg twice daily, (10 am and 2 pm), for 5 days with a two-day washout between the different dose levels. Nepicastat was administered via oral syringe at the 0.5, 2.0 […] mg/kg doses and as oral gavage at the 5.0 mg/kg dose.

Data set [5] in a line: Toxicity studies in dogs (acute, 1-month). The format is in vivo. On the procedure: Dose selection was based on data from two studies with nepicastat. […] In a 1-month study, doses of 5, 20, or 80 mg/kg were administered to dogs orally once daily.

tyrosine hydroxylase, sequence (P07101 whole entry): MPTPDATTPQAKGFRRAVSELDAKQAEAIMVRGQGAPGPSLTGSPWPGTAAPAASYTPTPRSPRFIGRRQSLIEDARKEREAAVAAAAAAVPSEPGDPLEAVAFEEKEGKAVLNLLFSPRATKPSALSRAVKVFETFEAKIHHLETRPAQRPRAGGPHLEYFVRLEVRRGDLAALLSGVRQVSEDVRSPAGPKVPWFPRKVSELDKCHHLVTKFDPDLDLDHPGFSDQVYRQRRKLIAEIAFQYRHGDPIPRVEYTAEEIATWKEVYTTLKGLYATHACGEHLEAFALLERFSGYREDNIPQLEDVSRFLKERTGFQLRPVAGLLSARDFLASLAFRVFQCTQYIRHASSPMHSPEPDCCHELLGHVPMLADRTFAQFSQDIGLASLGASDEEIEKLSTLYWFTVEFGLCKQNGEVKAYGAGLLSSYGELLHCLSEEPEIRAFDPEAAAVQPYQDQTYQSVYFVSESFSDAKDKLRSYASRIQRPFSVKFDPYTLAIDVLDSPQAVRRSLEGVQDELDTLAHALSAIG
HMG-CoA reductase, sequence (P04035 whole entry, species assumed): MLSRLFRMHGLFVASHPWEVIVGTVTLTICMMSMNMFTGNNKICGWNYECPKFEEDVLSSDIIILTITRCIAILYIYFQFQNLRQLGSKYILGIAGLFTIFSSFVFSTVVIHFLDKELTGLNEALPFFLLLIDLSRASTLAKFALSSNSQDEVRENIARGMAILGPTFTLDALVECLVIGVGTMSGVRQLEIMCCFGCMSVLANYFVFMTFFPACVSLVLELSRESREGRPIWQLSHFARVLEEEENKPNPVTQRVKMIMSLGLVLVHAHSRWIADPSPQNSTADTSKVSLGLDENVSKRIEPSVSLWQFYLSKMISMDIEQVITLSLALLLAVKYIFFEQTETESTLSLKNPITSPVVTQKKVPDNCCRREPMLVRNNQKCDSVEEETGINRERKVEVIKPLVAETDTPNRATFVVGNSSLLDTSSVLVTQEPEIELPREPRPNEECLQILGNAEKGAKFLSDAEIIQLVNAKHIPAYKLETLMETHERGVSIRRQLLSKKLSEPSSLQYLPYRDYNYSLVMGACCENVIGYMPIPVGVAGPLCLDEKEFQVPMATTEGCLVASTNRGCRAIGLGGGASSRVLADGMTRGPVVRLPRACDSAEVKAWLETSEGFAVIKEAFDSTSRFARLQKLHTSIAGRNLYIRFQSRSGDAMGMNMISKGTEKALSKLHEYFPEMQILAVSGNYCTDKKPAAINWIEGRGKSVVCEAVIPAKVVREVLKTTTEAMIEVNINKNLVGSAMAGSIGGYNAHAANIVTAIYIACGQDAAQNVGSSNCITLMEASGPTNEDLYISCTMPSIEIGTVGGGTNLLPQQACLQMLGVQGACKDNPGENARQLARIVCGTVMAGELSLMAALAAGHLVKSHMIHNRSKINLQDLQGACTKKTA
cyclooxygenase-I, sequence (P23219 24-599): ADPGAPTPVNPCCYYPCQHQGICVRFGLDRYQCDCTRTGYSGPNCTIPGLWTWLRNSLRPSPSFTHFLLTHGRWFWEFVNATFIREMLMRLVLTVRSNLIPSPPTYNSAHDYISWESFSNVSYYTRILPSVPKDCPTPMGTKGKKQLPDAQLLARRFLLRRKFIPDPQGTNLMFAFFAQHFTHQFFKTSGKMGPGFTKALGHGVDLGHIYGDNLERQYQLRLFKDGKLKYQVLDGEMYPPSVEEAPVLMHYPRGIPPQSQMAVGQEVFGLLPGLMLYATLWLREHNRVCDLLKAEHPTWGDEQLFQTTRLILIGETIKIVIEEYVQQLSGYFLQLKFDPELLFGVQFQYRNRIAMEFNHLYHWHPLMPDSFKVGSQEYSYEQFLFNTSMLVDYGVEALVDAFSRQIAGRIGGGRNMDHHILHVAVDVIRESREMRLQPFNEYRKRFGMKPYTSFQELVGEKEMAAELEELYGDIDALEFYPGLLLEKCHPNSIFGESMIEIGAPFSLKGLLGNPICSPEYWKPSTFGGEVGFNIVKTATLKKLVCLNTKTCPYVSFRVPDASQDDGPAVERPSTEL
neutral endopeptidase, sequence (P08473 whole entry, species assumed): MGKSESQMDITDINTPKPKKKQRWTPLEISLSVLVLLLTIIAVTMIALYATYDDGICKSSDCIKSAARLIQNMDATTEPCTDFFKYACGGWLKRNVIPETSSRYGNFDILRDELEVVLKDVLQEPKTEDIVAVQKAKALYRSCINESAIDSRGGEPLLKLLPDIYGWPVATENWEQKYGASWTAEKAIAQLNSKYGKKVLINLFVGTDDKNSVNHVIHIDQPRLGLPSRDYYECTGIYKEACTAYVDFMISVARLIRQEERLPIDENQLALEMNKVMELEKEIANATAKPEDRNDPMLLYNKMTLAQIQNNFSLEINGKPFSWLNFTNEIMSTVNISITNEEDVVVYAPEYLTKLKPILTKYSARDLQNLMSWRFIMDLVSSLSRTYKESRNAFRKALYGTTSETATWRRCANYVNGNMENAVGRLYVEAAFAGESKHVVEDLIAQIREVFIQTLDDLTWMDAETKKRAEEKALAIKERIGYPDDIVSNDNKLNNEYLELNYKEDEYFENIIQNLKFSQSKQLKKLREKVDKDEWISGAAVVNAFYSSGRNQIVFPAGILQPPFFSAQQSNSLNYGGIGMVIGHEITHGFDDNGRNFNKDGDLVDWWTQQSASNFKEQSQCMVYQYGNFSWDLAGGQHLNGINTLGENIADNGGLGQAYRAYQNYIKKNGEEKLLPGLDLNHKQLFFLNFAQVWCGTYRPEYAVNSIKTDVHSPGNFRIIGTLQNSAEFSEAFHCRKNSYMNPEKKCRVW

For the molecule `Cl.NCc1c[nH]c(=S)n1[C@H]1CCc2c(F)cc(F)cc2C1` [nepicastat, (S)-5-Aminomethyl-1-(5,7-difluoro-1,2,3,4-tetrahydronaphth-2-yl)-2,3-dihydro-2-thioxo-1H-imidazole hydrochloride], the IC50 (against HMG-CoA reductase; against acetyl CoA synthetase; in [1]; on cyclooxygenase-I; at neutral endopeptidase; against nitric oxide synthase) was greater than 10 µM each time. Moreover, the IC50 against phosphodiesterase III, at phospholipase A2, against protein kinase C and at tyrosine hydroxylase was greater than 10 µM in each case. In the data set on pithed SHRs (3 mg/kg p.o., 5 hours after dosing), the “hypertensive and tachycardic responses to preganglionic nerve stimulation” value is “significantly attenuated the hypertensive and tachycardic responses”. For the same molecule, the “heart rate response to PNS” value with pithed SHRs (5 h after dosing) is on record as “not significantly affected”. Also, in the data set on pithed SHRs (5 h after dosing), the “maximum shift in the frequency-pressor response curve” value is roughly 5 fold. The “phenylephrine responsiveness of aorta” value in data set [2] is listed as “restored phenylephrine responsiveness”. For the same molecule, the “left ventricular binding, treated vs vehicle group” value in data set [3] is reported as “no difference”. In addition, the “adverse finding in one non-lesioned monkey” value in data set [4] (5.0 mg/kg twice daily, final two days) was “light beige colored loose stools”. In addition, the tolerability entry in [4] (0.5 and 2.0 mg/kg twice daily, 5 days) is listed as “well tolerated at the two lower doses”. In addition, the 1-month toxicity entry in [5] (80 mg/kg/day orally once daily) is recorded as “Clinical signs of toxicity were present”. Moreover, the acute toxicity result in data set [5] (single oral dose of 400 mg/kg) was “transient clinical signs of toxicity”.

(Values after patent US10561638B2, “Methods for treating dependence” (Biotie Therapies, Inc., priority 2007, dated 2020).)
